Biological target: T1, HIV-1 PR (HIV-1 protease) (HIV-1 M:B_HXB2R, UniProt P04585)
T1 construct: gene gag-pol; mature protease cut from Gag-Pol polyprotein (Pr160Gag-Pol); SensoLyte 520 HIV-1 assay kit; homodimer
Assay type: biochemical
Conditions: n = 3; read-out: HIV-1 PR / IC50 ± SD (mg/mL) (converted)

SMILES | IC50
O=c1cc(-c2ccc(O)cc2)oc2cc(O)cc(O)c12 [Apigenin] | 481 µM
O=C(O)[C@H]1O[C@@H](Oc2cc3oc(-c4ccccc4)cc(=O)c3c(O)c2O)[C@H](O)[C@@H](O)[C@@H]1O [Baicalin] | 1860 µM
O=c1cc(-c2ccc(O)c(O)c2)oc2cc(O)cc(O)c12 [Luteolin] | 136 µM
O=C1C[C@@H](c2ccc(O)cc2)Oc2cc(O)cc(O)c21 [Narigenin] | 661 µM
O=c1cc(-c2ccc(O)cc2)oc2cc(O)c(O)c(O)c12 [Scutellarein] | 238 µM
COc1c(O)cc(O)c2c(=O)cc(-c3ccccc3)oc12 [Wogonin] | 1410 µM

Reference: paper PMC10254773, “Identification of Flavonoids from Scutellaria barbata D. Don as Inhibitors of HIV-1 and Cathepsin L Proteases and Their Structure–Activity Relationships” (Molecules, 2023)
